The target in assay [1] is T1, PBP3 from Acinetobacter baumannii (ATCC 19606) (Acinetobacter baumannii, UniProt A0ABX6CK25).
T1 sequence (A0ABX6CK25 64-610): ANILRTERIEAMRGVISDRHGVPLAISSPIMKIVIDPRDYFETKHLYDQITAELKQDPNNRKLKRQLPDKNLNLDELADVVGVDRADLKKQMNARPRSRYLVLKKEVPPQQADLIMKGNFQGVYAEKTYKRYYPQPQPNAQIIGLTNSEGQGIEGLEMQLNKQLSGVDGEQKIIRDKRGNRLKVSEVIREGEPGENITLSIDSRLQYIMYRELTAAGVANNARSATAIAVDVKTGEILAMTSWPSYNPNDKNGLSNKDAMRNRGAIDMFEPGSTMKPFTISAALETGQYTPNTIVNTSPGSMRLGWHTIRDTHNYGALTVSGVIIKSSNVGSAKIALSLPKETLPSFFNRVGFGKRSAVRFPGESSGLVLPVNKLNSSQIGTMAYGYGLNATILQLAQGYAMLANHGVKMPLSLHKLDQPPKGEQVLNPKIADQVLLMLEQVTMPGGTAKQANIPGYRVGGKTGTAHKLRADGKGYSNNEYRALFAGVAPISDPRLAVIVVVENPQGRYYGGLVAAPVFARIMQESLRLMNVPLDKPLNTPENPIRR
The experiment in a line: Bocillin-FL fluorescence polarization competition binding, A. baumannii PBP3. As to conditions: fluorescence polarization competition binding assay using Bocillin-FL; read-out: A. baumannii PBP3 Potency. In a few lines:
(§1)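 Purified PBPs pre-incubated with inhibitor (E. coli PBP3 1.5 μM, 30 min; P. aeruginosa PBP3 0.75 μM, A. baumannii PBP1a 1 μM and PBP3 0.2 μM, 15 min), then Bocillin-FL 0.1 μM (0.05 μM for PBP1a) added; FP read up to 60 min. EC50 = concentration halving bound Bocillin-FL.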

A further assay concerns P. aeruginosa CDC-0090. As to the kind of experiment: microbe, parasite or virus in culture. As to conditions: Pseudomonas aeruginosa, CDC0090, read-out: Minimum inhibitory concentration, P. aeruginosa CDC-0090. The assay is classed as cell-based.
The subject of assay [2] is P. aeruginosa (ΔmexAB-oprM). The experiment in a line: Broth microdilution MIC in iron-depleted CAMHB (IDM). As to conditions: Pseudomonas aeruginosa; iron-depleted CAMHB (IDM); […]; read-out: Minimum inhibitory concentration, P. aeruginosa ΔmexAB-oprM. It is filed as cell-based.
The next assay relates to A. baumannii 1258916. As to the kind of experiment: microbe, parasite or virus in culture. It is filed as cell-based, Acinetobacter baumannii. As to conditions: Acinetobacter baumannii, 1258916, read-out: MIC, A. baumannii 1258916.
In the next assay the test system is P. aeruginosa CDC-0110. As to the kind of experiment: microbe, parasite or virus in culture. It is filed as cell-based. As to conditions: Pseudomonas aeruginosa, CDC0110, read-out: Minimum inhibitory concentration, P. aeruginosa CDC-0110.
For assay [3], the system named is B. thailandensis ATCC 700388. The experiment in a line: microbe, parasite or virus in culture. It is filed as cell-based. As to conditions: Burkholderia thailandensis, ATCC700388, read-out: Minimum inhibitory concentration (MIC), B. thailandensis ATCC 700388.
The target in assay [4] is T2, PBP3 from Pseudomonas aeruginosa (PAO1) (Pseudomonas aeruginosa, UniProt G3XD46).
T2 construct: made in house
The experiment in a line: Bocillin-FL fluorescence polarization competition binding, P. aeruginosa PBP3. As to conditions: Binding affinity to P. aeruginosa PBP3; fluorescence polarization competition binding assay using Bocillin-FL; read-out: P. aeruginosa PBP3 Potency. Summed up: as §1

A further assay has as its system P. aeruginosa CDC-0054. As to the kind of experiment: microbe, parasite or virus in culture. It is filed as cell-based. As to conditions: Pseudomonas aeruginosa, CDC0054, read-out: Minimum inhibitory concentration, P. aeruginosa CDC-0054.
The next assay relates to A. baumannii ATCC 17978. As to the kind of experiment: microbe, parasite or virus in culture. The assay is classed as cell-based. As to conditions: Acinetobacter baumannii, ATCC17978, read-out: MIC, A. baumannii ATCC 17978.
The next assay has as its system P. aeruginosa CDC-0095. The experiment in a line: microbe, parasite or virus in culture. The assay is classed as cell-based. As to conditions: Pseudomonas aeruginosa, CDC0095, read-out: Minimum inhibitory concentration, P. aeruginosa CDC-0095.

Each structure is given as a SMILES string. In brackets after ≈: the same amount, converted by molar mass.

T2 sequence (G3XD46 whole entry): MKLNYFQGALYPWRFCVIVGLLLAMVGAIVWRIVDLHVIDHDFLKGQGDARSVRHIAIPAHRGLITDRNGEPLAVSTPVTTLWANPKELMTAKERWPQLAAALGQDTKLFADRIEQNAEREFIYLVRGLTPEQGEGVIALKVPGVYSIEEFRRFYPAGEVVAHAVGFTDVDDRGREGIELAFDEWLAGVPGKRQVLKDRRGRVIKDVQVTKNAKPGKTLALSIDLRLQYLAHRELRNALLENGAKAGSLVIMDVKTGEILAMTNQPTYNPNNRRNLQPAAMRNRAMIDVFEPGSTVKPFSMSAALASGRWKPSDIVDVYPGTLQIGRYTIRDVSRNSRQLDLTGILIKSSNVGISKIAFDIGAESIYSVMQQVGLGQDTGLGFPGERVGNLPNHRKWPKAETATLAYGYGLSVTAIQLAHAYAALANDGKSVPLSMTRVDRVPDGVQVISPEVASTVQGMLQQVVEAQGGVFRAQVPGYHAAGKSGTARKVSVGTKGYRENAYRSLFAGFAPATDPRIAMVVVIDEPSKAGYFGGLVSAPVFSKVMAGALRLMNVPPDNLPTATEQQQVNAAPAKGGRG

Turning to `O=C(O)c1c(F)ccc2c1OB(O)[C@@H](NC(=O)[C@H](NC(=O)N1CCN(C3CCN(C(=O)Nc4cccc(O)c4Cl)CC3)C1=O)c1cc(F)c(O)c(O)c1Cl)C2` [Example 447, (R)-3-((R)-2-(3-(1-((2-chloro-3-hydroxyphenyl)carbamoyl)piperidin-4-yl)-2-oxoimidazolidine-1-carboxamido)-2-(2-chloro-5-fluoro-3,4-dihydroxyphenyl)acetamido)-7-fluoro-2-hydroxy-3,4-dihydro-2H-benzo[e][1,2]oxaborinine-8-carboxylic acid], the IC50 in assay [1] and in [4] was less than 10 µM in each case. The MIC (in the assay with P. aeruginosa CDC-0090; in assay [2]; with A. baumannii 1258916; in the assay with P. aeruginosa CDC-0110; in assay [3]; in the assay with P. aeruginosa CDC-0054) was less than 1 µg/mL throughout. The MIC with A. baumannii ATCC 17978 and with P. aeruginosa CDC-0095 was less than 1 µg/mL throughout.

Consider `O=C(O)c1c(F)ccc2c1OB(O)[C@@H](NC(=O)[C@H](NC(=O)N1CCN(C3CCN(C(=O)Nc4cc(O)cc(O)c4)CC3)C1=O)c1cc(F)c(O)c(O)c1Cl)C2` [Example 456, (R)-3-((R)-2-(2-chloro-5-fluoro-3,4-dihydroxyphenyl)-2-(3-(1-((3,5-dihydroxyphenyl)carbamoyl)piperidin-4-yl)-2-oxoimidazolidine-1-carboxamido)acetamido)-7-fluoro-2-hydroxy-3,4-dihydro-2H-benzo[e][1,2]oxaborinine-8-carboxylic acid], for which the IC50 in [1] and in assay [4] was less than 10 µM throughout. Moreover, the MIC (in the assay on P. aeruginosa CDC-0090; in [2]; in the assay on A. baumannii 1258916; in the assay with P. aeruginosa CDC-0110; in assay [3]; in the assay with P. aeruginosa CDC-0054) was less than 1 µg/mL in each case. In addition, the MIC in the assay with A. baumannii ATCC 17978 and in the assay with P. aeruginosa CDC-0095 was less than 1 µg/mL in each case.

With `O=C(O)c1c(F)ccc2c1OB(O)[C@@H](NC(=O)[C@H](NC(=O)N1CCN(C3CCN(C(=O)c4cccnc4)CC3)C1=O)c1cc(F)c(O)c(O)c1Cl)C2` [Example 460, (R)-3-((R)-2-(2-chloro-5-fluoro-3,4-dihydroxyphenyl)-2-(3-(1-nicotinoylpiperidin-4-yl)-2-oxoimidazolidine-1-carboxamido)acetamido)-7-fluoro-2-hydroxy-3,4-dihydro-2H-benzo[e][1,2]oxaborinine-8-carboxylic acid], the IC50 in assay [1] and in assay [4] was less than 10 µM throughout. Besides, the MIC (in the assay with P. aeruginosa CDC-0090; in assay [2]; in the assay with A. baumannii 1258916; in the assay with P. aeruginosa CDC-0110; in assay [3]; in the assay on P. aeruginosa CDC-0054) was less than 1 µg/mL in each case. Moreover, the MIC with A. baumannii ATCC 17978 and with P. aeruginosa CDC-0095 was less than 1 µg/mL in each case.

As to `O=C(O)c1c(F)ccc2c1OB(O)[C@@H](NC(=O)[C@H](NC(=O)N1CCN(C3CCN(C(=O)c4ccncc4)CC3)C1=O)c1cc(F)c(O)c(O)c1Cl)C2` [Example 461, (R)-3-((R)-2-(2-chloro-5-fluoro-3,4-dihydroxyphenyl)-2-(3-(1-isonicotinoylpiperidin-4-yl)-2-oxoimidazolidine-1-carboxamido)acetamido)-7-fluoro-2-hydroxy-3,4-dihydro-2H-benzo[e][1,2]oxaborinine-8-carboxylic acid], the IC50 in assay [1] and in assay [4] was less than 10 µM throughout. Moreover, the MIC (in the assay on P. aeruginosa CDC-0090; in assay [2]; in the assay with A. baumannii 1258916; in the assay with P. aeruginosa CDC-0110; in assay [3]; in the assay with P. aeruginosa CDC-0054) was less than 1 µg/mL each time. The MIC in the assay on A. baumannii ATCC 17978 and in the assay on P. aeruginosa CDC-0095 was less than 1 µg/mL in each case.

As for `O=C(O)c1c(F)ccc2c1OB(O)[C@@H](NC(=O)C(NC(=O)N1CCN(C3CCN(C(=O)Nc4cc(O)ccc4F)CC3)C(=O)C1=O)c1cc(F)c(O)c(O)c1Cl)C2` (stereo partly drawn) [Example 479, (3R)-3-(2-(2-chloro-5-fluoro-3,4-dihydroxyphenyl)-2-(4-(1-((2-fluoro-5-hydroxyphenyl)carbamoyl)piperidin-4-yl)-2,3-dioxopiperazine-1-carboxamido)acetamido)-7-fluoro-2-hydroxy-3,4-dihydro-2H-benzo[e][1,2]oxaborinine-8-carboxylic acid], the IC50 in [1] and in assay [4] was less than 10 µM each time. The MIC in the assay on P. aeruginosa CDC-0090 was 2 to 4 µg/mL (≈ 2.44 to 4.88 µM); in assay [2], less than 1 µg/mL; with A. baumannii 1258916, less than 1 µg/mL; in the assay on P. aeruginosa CDC-0110, less than 1 µg/mL; in [3] it was less than 1 µg/mL; in the assay on P. aeruginosa CDC-0054 it was less than 1 µg/mL. Further, the MIC in the assay on A. baumannii ATCC 17978 and in the assay on P. aeruginosa CDC-0095 was less than 1 µg/mL throughout.

With `O=C(O)c1c(F)ccc2c1OB(O)[C@@H](NC(=O)C(NC(=O)N1CCN(C3CCN(C(=O)Nc4ccc(F)c(O)c4)CC3)C(=O)C1=O)c1cc(F)c(O)c(O)c1Cl)C2` (stereo partly drawn) [Example 480, (3R)-3-(2-(2-chloro-5-fluoro-3,4-dihydroxyphenyl)-2-(4-(1-((4-fluoro-3-hydroxyphenyl)carbamoyl)piperidin-4-yl)-2,3-dioxopiperazine-1-carboxamido)acetamido)-7-fluoro-2-hydroxy-3,4-dihydro-2H-benzo[e][1,2]oxaborinine-8-carboxylic acid], the IC50 in assay [1] and in assay [4] was less than 10 µM each time. Besides, the MIC is 2 to 4 µg/mL (≈ 2.44 to 4.88 µM) with P. aeruginosa CDC-0090; less than 1 µg/mL in [2]; less than 1 µg/mL in the assay on A. baumannii 1258916; 2 to 4 µg/mL (≈ 2.44 to 4.88 µM) in the assay with P. aeruginosa CDC-0110; 2 to 4 µg/mL (≈ 2.44 to 4.88 µM) in assay [3]; less than 1 µg/mL in the assay with P. aeruginosa CDC-0054. The MIC in the assay with A. baumannii ATCC 17978 and in the assay with P. aeruginosa CDC-0095 was less than 1 µg/mL each time.

In the case of `O=C(O)c1c(F)ccc2c1OB(O)[C@@H](NC(=O)C(NC(=O)N1CCN(C3CCN(C(=O)Nc4cc(O)cc(F)c4)CC3)C(=O)C1=O)c1cc(F)c(O)c(O)c1Cl)C2` (stereo partly drawn) [Example 481, (3R)-3-(2-(2-chloro-5-fluoro-3,4-dihydroxyphenyl)-2-(4-(1-((3-fluoro-5-hydroxyphenyl)carbamoyl)piperidin-4-yl)-2,3-dioxopiperazine-1-carboxamido)acetamido)-7-fluoro-2-hydroxy-3,4-dihydro-2H-benzo[e][1,2]oxaborinine-8-carboxylic acid], the IC50 in assay [1] and in assay [4] was less than 10 µM in each case. Further, the MIC was 2 to 4 µg/mL (≈ 2.44 to 4.88 µM) in the assay on P. aeruginosa CDC-0090; less than 1 µg/mL in assay [2]; less than 1 µg/mL with A. baumannii 1258916; less than 1 µg/mL in the assay with P. aeruginosa CDC-0110; 2 to 4 µg/mL (≈ 2.44 to 4.88 µM) in assay [3]; less than 1 µg/mL in the assay on P. aeruginosa CDC-0054. In addition, the MIC in the assay on A. baumannii ATCC 17978 and with P. aeruginosa CDC-0095 was less than 1 µg/mL each time.

As to `O=C(O)c1c(F)ccc2c1OB(O)[C@@H](NC(=O)[C@H](NC(=O)N1CCN(C3CCN(C(=O)Nc4cccc(O)c4Cl)CC3)C(=O)C1=O)c1cc(F)c(O)c(O)c1Cl)C2` [Example 482, (R)-3-((R)-2-(4-(1-((2-chloro-3-hydroxyphenyl)carbamoyl)piperidin-4-yl)-2,3-dioxopiperazine-1-carboxamido)-2-(2-chloro-5-fluoro-3,4-dihydroxyphenyl)acetamido)-7-fluoro-2-hydroxy-3,4-dihydro-2H-benzo[e][1,2]oxaborinine-8-carboxylic acid], the IC50 in assay [1] and in assay [4] was less than 10 µM in each case. The MIC was 2 to 4 µg/mL (≈ 2.39 to 4.79 µM) with P. aeruginosa CDC-0090; less than 1 µg/mL in assay [2]; less than 1 µg/mL in the assay on A. baumannii 1258916; 2 to 4 µg/mL (≈ 2.39 to 4.79 µM) in the assay on P. aeruginosa CDC-0110; less than 1 µg/mL in [3]; less than 1 µg/mL in the assay with P. aeruginosa CDC-0054. Also, the MIC with A. baumannii ATCC 17978 and in the assay on P. aeruginosa CDC-0095 was less than 1 µg/mL each time.

(Values after US20240270762A1, “PENICILLIN-BINDING PROTEIN INHIBITORS” (priority 2021, published 2024).)
